Assay results taken from patent US20210378193A1, “HAPLOID EMBRYOGENESIS” (STICHTING WAGENINGEN RESEARCH, priority 2013, published 2021).

Tested on: B. napus DH 12075 microspore-derived embryos
Test: conversion of microspore-derived embryos to seedlings (roots, shoots)
Assay type: cell-based, Brassica napus
Conditions: embryos transferred to regeneration medium
Source text: All of the embryos that produced roots, except for the short embryo type, initiated root development from the root meristem, as evidenced by the development of roots within a few days of growth on germination medium.
In FIG. 12B, different types of embryos derived from different populations of microspores/pollen treated with DMSO (control) or different concentrations of HDACi were transferred to a regeneration medium and evaluated for their ability to produce shoots (a measure of conversion).

Structure (SMILES): O=C(CCCCCCC(=O)Nc1ccccc1)NO [SAHA, suberoylanilide hydroxamic acid]
- germination (ability to produce shoots, a measure of conversion) compared to the control: improved
